Source: US6476051B2, “Antipsychotic heterocycle compounds” (Bristol-Myers Squibb Company, priority 1999, dated 2002)
Where a name gives a salt, the structure may show the parent alone. Read-outs that look alike come from different tables or passages of the source.

Assays:
[1] = target: T1, recombinant human dopamine D2L receptors (Homo sapiens, UniProt P14416); assay: Dopamine binding protocol ([3H]-spiperone binding, HEK-D2L cell membranes)
T1 construct: expressed in transfected cells; host or cells: HEK-293 (HEK-D2L cells), membrane homogenates
Protocol: Like many clinically effective antipsychotic agents, the compounds of Formula I also are antagonists at the human D2L receptor as determined by [^3H]-spiperone binding studies using human D2L receptors stably expressed in HEK-293 cells.
HEK-293 cells that stably express recombinant human dopamine D2L receptors (HEK-D2L cells) were grown at 37° C. in 5% CO2 as a monolayer in medium consisting of EMEM supplemented with 10% fetal bovine serum and G418 sulfate (500 μg/ml). To prepare membranes for radioligand binding experiments, cells were rinsed twice with phosphate-buffered saline (138 mM NaCl, 4.1 mM KCl, 5.1 mM Na2PO4, 1.5 mM […] 11.1 mM glucose, pH 7.4), and incubated for 5-10 min. at 4° C. in hypotonic lysis buffer consisting of 10 mM Tris (pH 7.4) and 5 mM EDTA. Cells were transferred from plates to polypropylene tubes (16×100 mm), homogenized and centrifuged at 32,000×g for 20 min. Following centrifugation, pellets were resuspended by homogenization in buffer consisting of 50 mM Tris (pH 7.7 at 25° C.) and 1 mM EDTA. Homogenates were stored at −80° C. until needed. On the day of an experiment, homogenates were thawed then centrifuged at 32,000×g for 20 min. Following centrifugation, supernatants were discarded and pellets were resuspended in assay buffer consisting of 50 mM Tris (pH 7.4 at 25° C.), 1 mM EDTA and 6 mM MgCl2. Membrane homogenates (˜5 μg) were incubated with 150 pM [^3H]-spiperone (Amersham Life Science) and increasing concentrations of test compounds for 1.5 hours at 22° C. in a total volume of 400 μl. Reactions were stopped by addition of ice-cold assay buffer and filtration over glass fiber filters (Whatman GFB, pre-soaked in 0.05% polyethylenimine) using a microtitre format Brandel cell harvester. Filters were washed with 3 ml of ice-cold assay buffer. Non-specific binding was defined with 2 μM (+)butaclamol. Ki values were calculated using the method of Cheng and Prusoff (1973). Protein concentrations were determined by the method of Bradford (1976) with BSA as a standard.
Test data IC50 values lower than 250 nM are considered to reflect affinity for dopamine D2L receptors.

[2] = target: T2, human serotonin transporters (Homo sapiens, UniProt P31645); assay: Serotonin transporter binding assay ([3H]-citalopram binding, HEK-hSERT cell membranes)
T2 construct: expressed in transfected cells; host or cells: HEK-293 (HEK-hSERT cells), membrane homogenates
Excerpt: The compounds of Formula I bind potently to the human 5-HT transporter and inhibit the re-uptake of endogenous serotonin. Selective serotonin reuptake inhibitors (SSRIs) are effective for the treatment of mental depression and have been reported to be useful for treating chronic pain (see: R. W. Fuller, Pharmacologic Modification of Serotonergic Function: Drugs for the Study and Treatment of Psychiatric and Other Disorders,” J. Clin. Psychiatry, 47:4 (Suppl.) April 1986, pp. 4-8). Compounds of the present invention are also envisioned to be useful for treating psychosis, acute mania, mild anxiety states or depression with secondary psychotic episodes. The present compounds are also envisioned to be useful in treating obsessive-compulsive disorders, feeding disorders, anxiety disorders and panic disorders.
HEK-293 cells that stably express human serotonin transporters (HEK-hSERT cells) were grown at 37° C. in 5% CO2 as a monolayer in medium consisting of EMEM supplemented with 10% fetal bovine serum and G418 sulfate (500 μg/ml). To prepare membranes for radioligand binding experiments, cells were rinsed twice with phosphate-buffered saline (138 mM NaCl, 4.1 mM KCl, 5.1 mM Na2PO4, 1.5 mM […], 11.1 mM glucose, pH 7.4). Cells were transferred from plates to polypropylene tubes (16×100 mm), centrifuged at 1,200×g for 5 min and were frozen at −80° C. until assay. Following centrifugation, pellets were resuspended by homogenization in buffer consisting of 50 mM Tris (pH 7.7 at 25° C.), 120 mM NaCl and 5 mM KCl and then centrifuged at 32,000×g for 10 min. Following centrifugation, supernatants were discarded and pellets were resuspended in buffer consisting of 50 mM Tris (pH 7.4 at 25° C.), 150 mM NaCl and 5 mM KCl. Membrane homogenates (200 μl/plate) were incubated with 1 nM [^3H]-citalopram (specific activity=85 Ci/mmol) and increasing concentrations of test compounds for 1 hour at 25° C. in a total volume of 250 μl. The assay buffer consisted of 50 mM Tris (pH 7.4 at 25° C.), 120 mM NaCl and 5 mM KCl (pH 7.4 with conc. HCl). Plates were incubated for 1 hour at 25° C., then filtered through 0.5% PEI treated Whatman GF/B filters using a Brandel cell harvester. Filters were washed three times with 3 ml of ice-cold tris wash buffer. Non-specific binding was defined with 10 μM fluoxetine. Amount of radioligand bound in the presence and absence of competitor was analyzed by plotting (−)log drug concentration versus the amount of radioligand specifically bound. The midpoint of the displacement curve (IC50, nM), signifies the potency. Ki values were calculated using the method of Cheng and Prusoff (1973).
Substances which inhibit the re-uptake of serotonin are recognized to be effective antidepressants (Selective Serotonin Reuptake Inhibitors. Edited by J P Feighner and W F Boyer, Chichester, England. John Wiley & Sons, 1991, pp 89-108). Test data IC50 values lower than 250 nM are considered to reflect activity as an inhibitor of serotonin re-uptake.

[3] = [3H]-spiperone, HEK-D2L membranes, read-out: dopamine D2L ligands with Ki
[4] = [3H]-citalopram, HEK-hSERT membranes, read-out: inhibit the re-uptake of serotonin with Ki

T2 sequence (P31645 whole entry): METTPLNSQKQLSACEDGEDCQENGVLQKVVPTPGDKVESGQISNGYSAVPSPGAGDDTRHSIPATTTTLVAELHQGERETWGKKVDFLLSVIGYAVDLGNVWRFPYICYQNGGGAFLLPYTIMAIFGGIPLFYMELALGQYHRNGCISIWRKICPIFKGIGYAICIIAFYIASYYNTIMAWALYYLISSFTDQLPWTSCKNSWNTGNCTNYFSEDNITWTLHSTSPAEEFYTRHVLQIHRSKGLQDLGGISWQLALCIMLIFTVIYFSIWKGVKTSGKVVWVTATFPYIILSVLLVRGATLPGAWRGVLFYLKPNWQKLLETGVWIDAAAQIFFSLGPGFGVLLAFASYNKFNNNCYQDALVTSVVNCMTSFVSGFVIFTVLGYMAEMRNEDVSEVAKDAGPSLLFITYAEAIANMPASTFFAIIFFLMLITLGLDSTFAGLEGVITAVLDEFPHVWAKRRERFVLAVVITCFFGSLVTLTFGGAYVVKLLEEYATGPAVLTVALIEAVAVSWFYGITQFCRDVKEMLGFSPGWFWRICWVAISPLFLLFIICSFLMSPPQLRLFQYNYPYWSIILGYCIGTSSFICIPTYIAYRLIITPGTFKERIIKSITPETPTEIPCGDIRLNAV
T1 sequence (P14416 whole entry): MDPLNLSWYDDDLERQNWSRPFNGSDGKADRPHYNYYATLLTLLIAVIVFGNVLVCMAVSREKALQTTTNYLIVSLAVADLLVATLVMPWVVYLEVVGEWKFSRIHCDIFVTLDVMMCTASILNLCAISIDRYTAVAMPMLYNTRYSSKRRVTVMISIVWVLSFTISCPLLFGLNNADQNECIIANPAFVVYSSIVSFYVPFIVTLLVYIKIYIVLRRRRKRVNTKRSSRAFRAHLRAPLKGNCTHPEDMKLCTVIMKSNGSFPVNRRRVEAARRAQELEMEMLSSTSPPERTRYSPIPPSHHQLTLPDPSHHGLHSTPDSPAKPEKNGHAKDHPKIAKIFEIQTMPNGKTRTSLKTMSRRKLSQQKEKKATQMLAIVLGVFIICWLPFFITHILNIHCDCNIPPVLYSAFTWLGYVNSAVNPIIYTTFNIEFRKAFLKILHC

Row | SMILES | melting point [°C] | Ki [1] [nM] | Ki [2] [nM] | Ki [1, 3] [nM] | Ki [2, 4] [nM]
1 | Cc1nc2cc(OCCCN3CC=C(c4c[nH]c5ccc(C#N)cc45)CC3)ccc2s1 (as salt: HCl) [Example 12, 5-{3-[4-(5-cyanoindol-3-yl)-1,2,5,6-tetrahydropyrid-1-yl]propoxy}-2-methylbenzothiazole] | 263 to 265 |  |  |  | 
2 | Cc1nc2cc(OCCCN3CC=C(c4c[nH]c5c(Br)cccc45)CC3)ccc2s1 [Example 28, 5-{3-[4-(7-bromoindol-3-yl)-1,2,5,6-tetrahydropyrid-1-yl]propoxy}-2-methylbenzothiazole] |  | < 100 | < 100 |  | 
3 | Cc1nc2cc(OCCCCN3CC=C(c4c[nH]c5c(Br)cccc45)CC3)ccc2s1 [Example 29, 5-{4-[4-(7-bromoindol-3-yl)1,2,5,6-tetrahydropyrid-1-yl]butoxy}-2-methylbenzothiazole] |  | < 100 | < 100 |  | 
4 | Cc1nc2cc(OCCCCCN3CC=C(c4c[nH]c5c(Br)cccc45)CC3)ccc2s1 [Example 30, 5-{5-[4-(7-bromoindol-3-yl)-1,2,5,6-tetrahydropyrid-1-yl]pentoxy}-2-methylbenzothiazole] |  | < 100 | < 100 |  | 
5 | COc1ccc2[nH]cc(C3=CCN(CCCOc4ccc5sc(C)nc5c4)CC3)c2c1 [Example 31, 5-{3-[4-(5-methoxyindol-3-yl)-1,2,5,6-tetrahydropyrid-1-yl]propoxy}-2-methylbenzothiazole] |  | < 100 | < 100 |  | 
6 | COc1ccc2[nH]cc(C3=CCN(CCCCCOc4ccc5sc(C)nc5c4)CC3)c2c1 [Example 33, 5-{5-[4-(5-methoxyindol-3-yl)-1,2,5,6-tetrahydropyrid-1-yl]pentoxy}-2-methylbenzothiazole] |  | < 100 | < 100 |  | 
7 | Cc1nc2cc(OCCCN3CC=C(c4c[nH]c5ccc(F)cc45)CC3)ccc2s1 [Example 34, 5-{3-[4-(5-fluoroindol-3-yl)-1,2,5,6-tetrahydropyrid-1-yl]propoxy}-2-methylbenzothiazole] |  | < 100 | < 100 |  | 
8 | Cc1nc2cc(OCCCN3CC=C(c4c[nH]c5ccc(Br)cc45)CC3)ccc2s1 [Example 36, 5-{3-[4-(5-bromoindol-3-yl)-1,2,5,6-tetrahydropyrid-1-yl]propoxy}-2-methylbenzothiazole] |  | < 100 | < 100 |  | 
9 | Cc1nc2cc(OCCCCN3CC=C(c4c[nH]c5ccc(C#N)cc45)CC3)ccc2s1 [Example 38, 5-{4-[4-(5-cyanoindol-3-yl)-1,2,5,6-tetrahydropyrid-1-yl]butoxy}-2-methylbenzothiazole] |  | < 100 | < 100 |  | 
10 | Cc1nc2cc(OCCCN3CCC(Cc4cccc5c4OCO5)CC3)ccc2s1 [Example 41, 5-{3-[4-(2H-benzo[d]1,3-dioxolan-4-ylmethyl)piperidinyl]propoxy}-2-methylbenzothiazole] |  |  |  | < 100 | < 100
11 | Cc1nc2cc(OCCCN3CCC(Cc4cc(F)ccc4Br)CC3)ccc2s1 [Example 44, 5-(3-{4-[(2-bromo-5-fluorophenyl)methyl]piperidinyl}propoxy)-2-methylbenzothiazole] |  |  |  | < 100 | < 100
12 | Cc1nc2cc(OCCCN3CCC(Cc4cc(F)ccc4F)CC3)ccc2s1 [Example 45, 5-(3-{4-[(2,-5-difluorophenyl)methyl]piperidinyl}propoxy)-2-methylbenzothiazole] |  |  |  | < 100 | < 100
